Data published in patent US12017992B2, “Compounds for modulating mitochondrial function” (Mayo Foundation for Medical Education and Research, priority 2015, dated 2024).
“And” between values parts separate entries of the source, which are not always exact repeats. Equal entries are not always repeated. “Also recorded” adds a separate entry of the source. Where two headings read alike, the source gives them in different places.

Legend:
NAD+ and NADH levels = NAD+ and NADH levels in primary embryonic cortical neurons (NAD+/NADH-GLO assay); assay type: cell-based, mouse; settings: among C687-C695; 100 nM, 2 μM and 5 μM
Protocol: FIGS. 14A and 14B are graphs plotting NAD^+ and NADH levels (FIG. 14A) or the NAD^+/NADH ratio (FIG. 14B) in primary embryonic cortical neurons after treatment with the indicated compounds. Neurons were seeded on 96-well plates at 30,000 cells per well. Seven days later, cells were treated with each compound at 2 μM. NAD^+ and NADH levels were measured 24 hours later using the bioluminescent NAD^+/NADH-GLO assay (Promega; Madison, WI). NAD^+ and NADH levels are expressed as a percent of vehicle treated (control) cells (FIG. 14A). All experiments were performed in 6 replicates.
FIGS. 18A-18C are graphs plotting the level of NAD+ (FIG. 18A), the level of NADH (FIG. 18B), and the ratio of NAD+/NADH (FIG. 18C) in primary embryonic cortical neurons that were seeded on a 96-well plate at 30,000 cells per well and treated seven days later with the indicated compounds at concentrations 100 nM, 2 μM and 5 μM. NAD+, NADH, and NAD+/NADH ratio were measured using a bioluminescent NAD+/NADH-GLO assay (Promega). All experiments were performed in 6 replicates.

ATP production = assay: ATP levels in primary embryonic cortical neurons; assay type: cell-based, mouse; settings: 10 nM to 5 μM, 24 hours
Protocol: FIGS. 12A and 12B are a pair of graphs plotting ATP levels in primary embryonic cortical neurons that were seeded on 96-well plates at 30,000 cells per well and treated with the indicated compounds at concentrations ranging from 10 nM to 5 μM, as indicated. ATP levels were measured 24 hours later using an ATP determination Kit (Life Technologies; Carlsbad, CA). ATP levels are expressed as a percent of vehicle treated (control) cells. All experiments were performed twice in 6 replicates.
FIG. 17 is a graph plotting ATP levels in primary embryonic cortical neurons after seeding on a 96-well plate at 30,000 cells per well and being treated seven days later with the indicated compounds at concentrations of 100 nM, 2 μM, and 5 μM. ATP levels were measured 24 hours after treatment using the bioluminescent CellTiter-GLO 2 assay (Promega, Madison, WI). All experiments were performed in 6 replicates.
To further characterize these nine new compounds, Complex I activity was measured in isolated mitochondria, and levels of ATP, NAD+, and NADH were measured in primary mouse embryonic cortical neurons (FIGS. 16-18).

MC65 cells = assay: Efficacy against Aβ toxicity in MC65 Tet on/off cells (MTT assay); assay type: cell-based; settings: for cell protective activity in Aβ-producing MC65 cells: 2.5 μM and 5 μM, compared to CP2; for EC50: nonlinear regression
Protocol: FIGS. 4A and 4B are a pair of graphs plotting survival of MC65 cells after treatment with the indicated compounds, in the presence (Tet/off) or absence (Tet/on) of Aβ expression. MC65 cells were cultured for 72 hours in the presence (on) or absence (off) of tetracycline in OPTI-MEM media without serum. […] Cell viability was measured with an MTT assay 72 hours later. Experiments were performed in triplicates. Every 96-well plate had its own on/off control. Four experimental compounds were tested per each plate. Experiments were repeated independently twice.
(§1) FIGS. 5A and 5B are a pair of graphs plotting survival of MC65 cells after treatment with the indicated compounds, in the presence (Tet/off) or absence (Tet/on) of Aβ expression. MC65 cells were cultured for 72 hours in the presence (on) or absence (off) of tetracycline in OPTI-MEM media without serum. Cells (Tet/on and Tet/off) at the time of plating were treated every 24 hours with vehicle (0.05% final DMSO) or experimental compounds (FIG. 5A, C458-C461; FIG. 5B, C462-C465) at 2.5 μM and 5 μM. Cell viability was measured with an MTT assay 72 hours later. Experiments were performed in triplicates. Every 96-well plate had its own on/off control. Four experimental compounds were tested per each plate. Experiments were repeated independently twice.
as §1, with “FIG. 6A is” for “FIGS. 5A and 5B are”, “graph” for “pair of graphs”, “(C470-C473)” for “(FIG. 5A, C458-C461; FIG. 5B, C462-C465)”, “twice. […] Toxicity of C463 under the same experimental conditions is shown for comparison. Cells were treated with 5 μM of each compound.” for “twice.”
FIGS. 9A-9D are a series of graphs plotting the half maximal effective concentration (EC50) for each of four experimental compounds against Aβ toxicity in MC65 Tet on/off cells. FIG. 9A, C455; FIG. 9B, C458; FIG. 9C, C460; FIG. 9D, C472.
FIGS. 11A and 11B are graphs plotting survival of MC65 cells cultured for 72 hours in the presence (on; FIG. 11A) or absence (off, FIG. 11B) of tetracycline in OPTI-MEM media without serum. Cells (Tet/on and Tet/off) at the time of plating were treated with either vehicle (0.05% final DMSO) or experimental compounds at 2.5 μM every 24 hours. Cell viability was measured with an MTT assay 72 hours later. Experiments were performed in triplicate, and every 96-well plate had its own on/off control. Four experimental compounds were tested per plate. Experiments were repeated independently twice.
FIGS. 15A and 15B are graphs plotting percent survival of MC65 cells cultured in the presence of tetracycline (Tet-On) (FIG. 15A) or without tetracycline (Tet-off) (FIG. 15B) in OPTI-MEM media without serum. […] Cell viability was measured with an MTT assay 72 hours after plating. Experiments were performed in triplicate, and were repeated independently twice.
The efficacy of all 24 compounds against Aβ toxicity was evaluated in MC65 cells. […] The viability of MC65 cells expressing Aβ (Tet/off, 40% viability) or not expressing Aβ (Tet/on, 100% viability) was measured after treatment with individual compounds. Results for all 24 compounds against Aβ toxicity are presented in FIGS. 4A, 4B, 5A, 5B, 6A, and 6B.
To further characterize the efficacy of these four compounds, the half maximal effective concentration (EC50) against Aβ toxicity in MC65 cells was measured using an MTT assay. […]

[1] = PK of C458 in mice, plasma and brain by LC-MS/MS; assay type: in vivo, mouse; settings: for Brain Concentration / Plasma Concentration / concentration at 0.5 h / concentration at 1 h / concentration at 2 h: single mouse; for concentration at 0.5 h / concentration at 1 h / concentration at 2 h / half-life / Kp: mouse; for concentration at 0.5 h / concentration at 1 h / concentration at 2 h: 2 mg/kg
Protocol: FIG. 10 is a graph plotting the elimination rate for C458 in brain and plasma of mice treated with 2.5 mg/kg of the compound via intrafemoral vein injection. Animals were sacrificed at 30 minutes, 1 hour, and 2 hours post injection.
The feasibility of developing the C458 series was evaluated by determining the in vivo PK profile for C458. Re-synthesized C458 was administered intravenously to wild type mice at 2 mg/kg. Frozen serum and brain tissue samples were analyzed using a bioanalytical LC-MS/MS method.
A rough estimation of elimination rate and half-life of C458 was determined in vivo by delivering a dose of 2.5 mg/kg to each mouse via intrafemoral vein injection. Each group of animals (n=2) was sacrificed at 30 minutes, 1 hour, and 2 hours post injection. Blood and brain tissue was collected, flash frozen, and the concentration of C458 was estimated using a LC-MS/MS assay with a linear calibration curve from 1 ng/ml to 1 ug/ml in both plasma and brain.
For rough estimation of elimination rate and half-life, a one-compartment model and the first rate elimination was assumed. Plotting (Ln) of concentration vs. time provided the elimination rate and half-life of C458 in plasma and the brain (FIG. 10).

[2] = In vivo toxicity and histology of C458 in WT mice; design: species or system mouse; settings: 50 mg/kg for one month ad libitum in drinking water
Protocol: To evaluate the toxicity of C458 in vivo, 2-month old breeding WT mice were treated with 50 mg/kg of C458 via drinking water. Untreated littermates were used as controls. After one month of treatment, adult and newborn animals were sacrificed and tissue was collected for histological examination.

[3] = tested on: cancer cell lines (HeLa, Panc1, p53−/− ms TCL, Patu, Su); assay: Survival of cancer cell lines (MTT assay); assay type: cell-based, human; settings: 5 μM or 50 μM, particularly at the higher dose
Excerpt: (§2) FIGS. 20A-20G are a series of graphs plotting the effect of the indicated compounds on survival of various cancer cells vs. control. FIG. 20A, HeLa cervical cancer cells; FIG. 20B, Panc1 pancreatic cancer cells; FIG. 20C, P-WT: mouse embryonic fibroblasts (MEFs; control); FIG. 20D, P++: MEFs; FIG. 20E, p53−/− ms T-cell lymphoma (TCL) cells; FIG. 20F, Patu pancreatic cancer cells; FIG. 20G, Su pancreatic cancer cells.
(§3) The following […] cell lines were used: HeLa (cervical cancer, FIG. 20A); Panc1 (pancreatic cancer, FIG. 20B); P-WT MEFs (control, FIG. 20C), P++ MEFs (accelerated aging phenotype, FIG. 20D) p53−/− ms TCL (FIG. 20E); Patu (pancreatic cancer, FIG. 20F), and Su (pancreatic cancer, FIG. 20G).

[4] = tested on: P++ MEFs (accelerated aging phenotype); assay: Growth of P++ mouse embryonic fibroblasts (MTT assay); assay type: cell-based; settings: 5 μM or 50 μM
Excerpt: as §2, §3

[5] = Comment on salt form (Table 3); assay type: physicochemical; settings: TFA salt

Structure (SMILES): Cc1cccc(O[C@@H]2CCC[C@H](C(C)CN(C)Cc3ccncc3)C2)c1 (stereo partly drawn) [Compound C693]
- efficacy in increasing NADH and decreasing NAD+/NADH ratio (NAD+ and NADH levels): highest efficacy

Structure (SMILES): Cc1cccc(O[C@@H]2CCC[C@H](C(C)CNCc3ccncc3)C2)c1 (relative stereo) [Compound C458, cis-(N-(pyridin-4-ylmethyl)-2-(3-(m-tolyloxy)cyclohexyl)propan-1-amine)]
- effect on ATP production (ATP production): modestly reduced ATP production
- cell protective activity in Aβ-producing MC65 cells (MC65 cells; 72 hours): promising cell protective activity
- fold higher efficacy (lower EC50) of C458 than CP2 (MC65 cells; EC50 against Aβ toxicity): 20- to 30 fold and 30 fold
- fold higher efficacy of C458 than C455 and C460 (MC65 cells; EC50 against Aβ toxicity): 100 fold
- EC50 (MC65 cells; MC65, MTT assay): ~4 nM
- EC50 (MC65 cells; MTT assay): 3.59 nM
- Brain Concentration ([1]; 0.5 hr): 390 ng/g
- Plasma Concentration ([1]; 0.5 hr): 41.4 ng/mL
- Brain Concentration ([1]; 1 hr): 149 ng/g
- Plasma Concentration ([1]; 1 hr): 15.2 ng/mL
- Brain Concentration ([1]; 2 hr): 76.4 ng/g
- Plasma Concentration ([1]; 2 hr): 10.3 ng/mL
- bioavailability ([1]; from elimination rate and half-life in plasma and brain): good bioavailability
- CNS penetration ([1]; mice, intravenous): significant CNS penetration; also recorded: penetrates the blood brain barrier and accumulates in the brain
- concentration at 0.5 h ([1]; brain, intravenous, 0.5 hr, read-out: Brain Concentration): 316 ng/g
- concentration at 1 h ([1]; brain, intravenous, 1 hr, read-out: Brain Concentration): 118 ng/g
- concentration at 2 h ([1]; brain, intravenous, 2 hr, read-out: Brain Concentration): 68.2 ng/g
- half-life ([1]; brain, intravenous, 2.5 mg/kg intrafemoral vein injection, one-compartment model, first rate elimination, read-out: estimated half-life in brain): 42 min
- Kp ([1]; brain, intravenous, 2.5 mg/kg intrafemoral vein injection, read-out: concentration in the brain, times higher than in plasma): 7 to 8
- Kp ([1]; brain, iv, wild type mice, intravenously at 2 mg/kg, read-out: concentration in brain tissue, times higher (w/v) than in plasma): 7 to 10
- concentration at 0.5 h ([1]; plasma, intravenous, 0.5 hr, read-out: Plasma Concentration): 43.7 ng/mL
- concentration at 1 h ([1]; plasma, intravenous, 1 hr, read-out: Plasma Concentration): 13 ng/mL
- concentration at 2 h ([1]; plasma, intravenous, 2 hr, read-out: Plasma Concentration): 9.83 ng/mL
- half-life ([1]; plasma, intravenous, 2.5 mg/kg intrafemoral vein injection, one-compartment model, first rate elimination, read-out: estimated half-life in plasma): 48 min
- half-life ([1]; serum, iv, wild type mice, intravenously at 2 mg/kg, read-out: apparent t1/2 in the blood): 48 min
- histology of adult WT mice [2]: did not cause histological abnormalities
- pathology of newborn mice conceived by treated breeding WT mice [2]: no pathological abnormalities were detected

Structure (SMILES): Cc1cc2c(c(=O)o1)C=C1CCN(C(C)CCc3ccc(O)cc3)C[C@@H]1O2 (stereo partly drawn) [Compound C455]
- effect on ATP production (ATP production): modestly reduced ATP production
- growth of cancer cell lines [3]: suppressed growth of the cancer cell lines tested
- growth of P++ MEFs [4]: suppress the growth
- cell protective activity in Aβ-producing MC65 cells (MC65 cells; 72 hours): promising cell protective activity

Structure (SMILES): Cc1cccc(O[C@@H]2CCC[C@H](C(C)CNCc3ccncc3)C2)c1 (stereo partly drawn)
- Comments (salt form) [5]: Highly hygroscopic

Structure (SMILES): Cc1cccc(O[C@@H]2CCC[C@H](C(C)CN(Cc3ccncc3)C(C)C)C2)c1 (stereo partly drawn) [Compound C694]
- efficacy in increasing NADH and decreasing NAD+/NADH ratio (NAD+ and NADH levels): highest efficacy

Structure (SMILES): Cc1cc2c(c(=O)o1)C=C1CCN(C(=O)Cc3cccc(O)c3)C[C@@H]1O2 [Compound C460]
- effect on ATP production (ATP production): little or no effect
- growth of cancer cell lines [3]: suppressed growth of the cancer cell lines tested
- growth of P++ MEFs [4]: suppress the growth
- cell protective activity in Aβ-producing MC65 cells (MC65 cells; 72 hours): promising cell protective activity
- efficacy against Aβ toxicity (representative images, FIG. 6B) (MC65 cells; 5 μM, 72 hours, Tet/on and Tet/off): efficacy
